According to US20090074790A1, “Methods for measuring transforming growth factor beta (TGF-beta) receptor signaling activity and uses thereof” (priority 2004, published 2009):

System: human keratinocytes
Assay: Growth of human keratinocytes (HKc/HPV16), TGFβ-induced growth arrest
Conditions: read-out: IC50 of growth inhibition of human keratinocytes, dose-dependent

For “TGFβ: Recombinant human TGFβ1 purchased from Austral Biologicals”, the IC50 was about 5 pM.
